Test results taken from patent US5140014A (Abbott Laboratories, priority 1989, dated 1992).
Values after ≈ are worked out from the molar mass of the structure shown. Where two headings read alike, the source gives them in different places.

Key:
Test in all cases: in vitro antibacterial activity, agar dilution method (MIC)
Assay type in all cases: cell-based
[1] = test system: Pseudomonas Aeruginosa; details: BHI agar, 20-24 hours
Description: (§1) The test medium was Brain Heart Infusion (BHI) agar. The antibacterial agent was dissolved at a concentration of 2,000 ug/mL. Test plates were then prepared, usually 12 two-fold dilutions. After adding the sample to the plates, 10 mL of cooled BHI agar medium was added to each plate. The organisms were grown overnight in BHI broth (Difco) in a 35°-37° C. incubator.
(§2) On the day of testing, the bacterial suspensions were diluted 1:100 in sterile distilled water, except for a few slow-growing organisms (usually Micrococcus and Streptococcus) which were diluted 1:10. The plate was then inoculated with approximately 10^4 organisms. This was incubated in a 35°-37° C. incubator for 20-24 hours. Thereafter, the plates were read to determine the minimum inhibitory concentration (MIC) defined as the lowest concentration of drug yielding no growth on the plate, a slight haze, or sparsely isolated colonies on the inoculum spot as compared to the growth control.

[2] = test system: Klebsiella Pneumoniae; details: strain ATCC 8045; BHI agar, 20-24 hours
Description: as §1, §2

[3] = test system: Micrococcus Luteus
Description: as §1, §2

[4] = test system: Enterobacter Aerogenes; details: strain ATCC 13048; BHI agar, 20-24 hours
Description: as §1, §2

[5] = test system: Staphylococcus Aureus; details: BHI agar, 20-24 hours
Description: as §1, §2

[6] = test system: Streptococcus Bovis; details: Streptococcus equinus, strain A5169, BHI agar, 20-24 hours
Description: as §1, §2

[7] = test system: Streptococcus Pyogenes; details: BHI agar, 20-24 hours
Description: as §1, §2

[8] = test system: Acinetobacter Sp; details: strain CMX 669; BHI agar, 20-24 hours
Description: as §1, §2

[9] = test system: Providencia Stuartii; details: strain CMX 640, BHI agar, 20-24 hours
Description: as §1, §2

[10] = test system: Streptococcus Agalactiae; details: strain CMX 508; BHI agar, 20-24 hours
Description: as §1, §2

[11] = test system: Enterococcus Faecium; details: strain ATCC 8043; BHI agar, 20-24 hours
Description: as §1, §2

[12] = test system: Haemophilus Influenzae; details: BHI agar, 20-24 hours
Description: as §1, §2

[13] = test system: Staphylococcus Epidermidis; details: strain 3519; BHI agar, 20-24 hours
Description: as §1, §2

[14] = test system: Escherichia Coli; details: BHI agar, 20-24 hours
Description: as §1, with “Compounds 1 to 8 were evaluated for antibacterial activity by the agar dilution method to determine the degree of in vitro susceptibility of aerobic microorganisms to antimicrobial agents. The test” for “The test”
as §2

[15] = test system: Pseudomonas Cepacia; details: strain 296I, BHI agar, 20-24 hours
Description: as §1, with “Compounds 1 to 8 were evaluated for antibacterial activity by the agar dilution method to determine the degree of in vitro susceptibility of aerobic microorganisms to antimicrobial agents. The test” for “The test”
as §2

[16] = strain ATCC 4698, BHI agar, 20-24 hours

CCC1OC(=O)CC(O)C(C)C(OC2OC(C)CC(N(C)C)C2O)C(CC=O)CC(C)C(N(C)C)CCC2(C)OC2C1C (stereo not shown) [Example 2, [9R]-9-Deoxo-10,11-dihydro-9-N,N-dimethylamino-rosaramicin]
MIC ([1]; Pseudomonas aeruginosa, strain A5007, read-out: MIC): > 100 µg/mL | MIC ([1]; Pseudomonas aeruginosa, strain BMH10, read-out: MIC): > 100 µg/mL | MIC ([1]; Pseudomonas aeruginosa, strain K799/WT, read-out: MIC): > 100 µg/mL | MIC ([1]; strain K799/61): 3.1 µg/mL (≈ 5.06 µM) | MIC [2]: 25 µg/mL (≈ 40.8 µM) | MIC ([3]; Micrococcus luteus, ATCC9341, strain ATCC 9341, BHI agar, 20-24 hours, read-out: MIC): 3.1 µg/mL (≈ 5.06 µM) | MIC [3, 16]: 6.2 µg/mL (≈ 10.1 µM) | MIC [4]: 100 µg/mL (≈ 163 µM) | MIC ([5]; strain 45): 25 µg/mL (≈ 40.8 µM) | MIC ([5]; strain 45 RAR2): 25 µg/mL (≈ 40.8 µM) | MIC ([5]; strain 642A): 50 µg/mL (≈ 81.6 µM) | MIC ([5]; strain A5177): 25 µg/mL (≈ 40.8 µM) | MIC ([5]; strain ATCC 6538P): 25 µg/mL (≈ 40.8 µM) | MIC ([5]; strain CMX 553): 25 µg/mL (≈ 40.8 µM) | MIC ([5]; strain NCTC 10649): 25 µg/mL (≈ 40.8 µM) | MIC ([6]; read-out: MIC): 1.56 µg/mL (≈ 2.55 µM) | MIC ([7]; Streptococcus pyogenes, strain 930 CONST, read-out: MIC): > 100 µg/mL | MIC ([7]; Streptococcus pyogenes, strain EES61, read-out: MIC): 3.1 µg/mL (≈ 5.06 µM) | MIC ([7]; strain 2548 INDUC): 6.2 µg/mL (≈ 10.1 µM) | MIC [8]: 25 µg/mL (≈ 40.8 µM) | MIC ([9]; Providencia stuartii, read-out: MIC): > 100 µg/mL | MIC [10]: 3.1 µg/mL (≈ 5.06 µM) | MIC [11]: 12.5 µg/mL (≈ 20.4 µM) | MIC ([12]; Haemophilus influenzae, ATCC9795, strain ATCC 9795, read-out: MIC): 2 µg/mL (≈ 3.26 µM) | MIC ([12]; Haemophilus influenzae, ATCC19418, strain ATCC 19418, read-out: MIC): 4 µg/mL (≈ 6.53 µM) | MIC ([12]; Haemophilus influenzae, ATCC43095, strain ATCC 43095, read-out: MIC): 4 µg/mL (≈ 6.53 µM) | MIC ([12]; Haemophilus influenzae, strain 566A, read-out: MIC): 2 µg/mL (≈ 3.26 µM) | MIC ([12]; Haemophilus influenzae, strain 588A, read-out: MIC): 2 µg/mL (≈ 3.26 µM) | MIC ([12]; Haemophilus influenzae, strain 632A, read-out: MIC): 2 µg/mL (≈ 3.26 µM) | MIC ([12]; Haemophilus influenzae, strain 747C, read-out: MIC): 2 µg/mL (≈ 3.26 µM) | MIC ([12]; Haemophilus influenzae, strain SOL AMP R, read-out: MIC): 2 µg/mL (≈ 3.26 µM) | MIC ([12]; Haemophilus influenzae, strain SPK AMP R, read-out: MIC): 0.5 µg/mL (≈ 0.816 µM) | MIC ([12]; strain 503B): 2 µg/mL (≈ 3.26 µM) | MIC ([12]; strain 504): 2 µg/mL (≈ 3.26 µM) | MIC ([12]; strain 519A): 1 µg/mL (≈ 1.63 µM) | MIC ([12]; strain 667A): 2 µg/mL (≈ 3.26 µM) | MIC ([12]; strain 751): 1 µg/mL (≈ 1.63 µM) | MIC ([12]; strain 1177): 0.25 µg/mL (≈ 0.408 µM) | MIC ([12]; strain 1435): 1 µg/mL (≈ 1.63 µM) | MIC ([12]; strain ATCC 10211): 2 µg/mL (≈ 3.26 µM) | MIC [13]: 25 µg/mL (≈ 40.8 µM) | MIC ([14]; Escherichia coli, strain SS, read-out: MIC): 0.2 µg/mL (≈ 0.326 µM) | MIC ([14]; strain DC-2): 50 µg/mL (≈ 81.6 µM) | MIC ([14]; strain JUHL): 100 µg/mL (≈ 163 µM) | MIC ([14]; strain KNK 437): 50 µg/mL (≈ 81.6 µM) | MIC ([15]; Burkholderia cepacia, read-out: MIC): > 100 µg/mL

CCC1OC(=O)CC(O)C(C)C(OC2OC(C)CC(N(C)C)C2O)C(CC=O)CC(C)C(N(C)C)CCC2(C)OC2C1C (stereo not shown) [Example 3, [9S]-9-Deoxo-10,11-dihydro-9-N,N-dimethylamino-rosaramicin]
MIC ([1]; strain A5007): > 100 µg/mL | MIC ([1]; strain BMH10): 100 µg/mL (≈ 163 µM) | MIC ([1]; strain K799/61): 0.78 µg/mL (≈ 1.27 µM) | MIC ([1]; strain K799/WT): 100 µg/mL (≈ 163 µM) | MIC [2]: 6.2 µg/mL (≈ 10.1 µM) | MIC ([3]; Micrococcus luteus, ATCC9341): 0.2 µg/mL (≈ 0.326 µM) | MIC [3, 16]: 0.39 µg/mL (≈ 0.636 µM) | MIC [4]: 12.5 µg/mL (≈ 20.4 µM) | MIC ([5]; strain 45): 0.78 µg/mL (≈ 1.27 µM) | MIC ([5]; strain 45 RAR2): 1.56 µg/mL (≈ 2.55 µM) | MIC ([5]; strain 642A): 1.56 µg/mL (≈ 2.55 µM) | MIC ([5]; strain A5177): 0.78 µg/mL (≈ 1.27 µM) | MIC ([5]; strain ATCC 6538P): 1.56 µg/mL (≈ 2.55 µM) | MIC ([5]; strain CMX 553): 1.56 µg/mL (≈ 2.55 µM) | MIC ([5]; strain NCTC 10649): 0.78 µg/mL (≈ 1.27 µM) | MIC [6]: 0.05 µg/mL (≈ 0.0816 µM) | MIC ([7]; strain 930 CONST): > 100 µg/mL | MIC ([7]; strain 2548 INDUC): 0.78 µg/mL (≈ 1.27 µM) | MIC ([7]; strain EES61): 0.1 µg/mL (≈ 0.163 µM) | MIC [8]: 3.1 µg/mL (≈ 5.06 µM) | MIC [9]: > 100 µg/mL | MIC [10]: 0.2 µg/mL (≈ 0.326 µM) | MIC [11]: 0.78 µg/mL (≈ 1.27 µM) | MIC ([12]; Haemophilus influenzae, strain 519A, read-out: MIC): 0.25 µg/mL (≈ 0.408 µM) | MIC ([12]; Haemophilus influenzae, strain 751, read-out: MIC): 4 µg/mL (≈ 6.53 µM) | MIC ([12]; Haemophilus influenzae, strain 1435, read-out: MIC): 0.5 µg/mL (≈ 0.816 µM) | MIC ([12]; Haemophilus influenzae, strain DILL AMP R, read-out: MIC): 0.5 µg/mL (≈ 0.816 µM) | MIC ([12]; strain 503B): 0.5 µg/mL (≈ 0.816 µM) | MIC ([12]; strain 504): 0.5 µg/mL (≈ 0.816 µM) | MIC ([12]; strain 566A): 1 µg/mL (≈ 1.63 µM) | MIC ([12]; strain 588A): 1 µg/mL (≈ 1.63 µM) | MIC ([12]; strain 632A): 1 µg/mL (≈ 1.63 µM) | MIC ([12]; strain 667A): 0.5 µg/mL (≈ 0.816 µM) | MIC ([12]; strain 747C): 1 µg/mL (≈ 1.63 µM) | MIC ([12]; strain 1177): 0.12 µg/mL (≈ 0.196 µM) | MIC ([12]; strain ATCC 9795): 1 µg/mL (≈ 1.63 µM) | MIC ([12]; strain ATCC 10211): 0.5 µg/mL (≈ 0.816 µM) | MIC ([12]; strain ATCC 19418): 1 µg/mL (≈ 1.63 µM) | MIC ([12]; strain ATCC 43095): 1 µg/mL (≈ 1.63 µM) | MIC ([12]; strain SOL AMP R): 1 µg/mL (≈ 1.63 µM) | MIC ([12]; strain SPK AMP R): 0.25 µg/mL (≈ 0.408 µM) | MIC [13]: 1.56 µg/mL (≈ 2.55 µM) | MIC ([14]; strain DC-2): 6.2 µg/mL (≈ 10.1 µM) | MIC ([14]; strain SS): 0.1 µg/mL (≈ 0.163 µM) | MIC [15]: > 100 µg/mL
